# The source made the active and inactive calls. The rule behind the calls is not given here.
# Tests used:
# UO-31 = assay: Antiproliferative activity against human UO31 cells assessed as growth inhibition after 48 hrs by sulforhodamine B assay; type: functional; conditions: UO-31, 48 h
# [1] = system: Panel NCI-60 (60 carcinoma cell lines); assay: Antiproliferative activity against human NCI60 cells assessed as growth inhibition after 48 hrs by sulforhodamine B assay; type: functional
# WI-38 = assay: Cytotoxicity activity against human WI38 cells assessed as reduction in cell viability measured after 48 hrs by MTT assay; type: cell-based; conditions: WI-38, 48 h
# [2] = Selectivity index, ratio of IC50 for human WI38 cells to GI50 for human NCI60 cells
# PC-3 = assay: Antiproliferative activity against human PC3 cells assessed as growth inhibition after 48 hrs by sulforhodamine B assay; type: functional; conditions: PC-3, 48 h
# OVCAR-3 = assay: Antiproliferative activity against human OVCAR3 cells assessed as growth inhibition after 48 hrs by sulforhodamine B assay; type: functional; conditions: OVCAR-3, 48 h
# [3] = system: Panel NCI-60 (60 carcinoma cell lines); assay: Antiproliferative activity against human NCI60 cells assessed as growth inhibition at 10 uM after 48 hrs by sulforhodamine B assay; type: functional; conditions: read-out: GI
# DU-145 = assay: Antiproliferative activity against human DU145 cells assessed as growth inhibition after 48 hrs by sulforhodamine B assay; type: functional; conditions: DU-145, 48 h
# ACHN = assay: Antiproliferative activity against human ACHN cells assessed as growth inhibition after 48 hrs by sulforhodamine B assay; type: functional
# 786-0 = assay: Antiproliferative activity against human 786-0 cells assessed as growth inhibition after 48 hrs by sulforhodamine B assay; type: functional; conditions: 786-0, 48 h
# SK-OV-3 = assay: Antiproliferative activity against human SKOV3 cells assessed as growth inhibition after 48 hrs by sulforhodamine B assay; type: functional; conditions: SK-OV-3, 48 h
# NCI/ADR-RES = assay: Antiproliferative activity against human NCI-ADR-RES cells assessed as growth inhibition after 48 hrs by sulforhodamine B assay; type: functional
# IGROV-1 = assay: Antiproliferative activity against human IGROV1 cells assessed as growth inhibition after 48 hrs by sulforhodamine B assay; type: functional; conditions: IGROV-1, 48 h
# SK-MEL-5 = assay: Antiproliferative activity against human SK-MEL-5 cells assessed as growth inhibition after 48 hrs by sulforhodamine B assay; type: functional; conditions: SK-MEL-5, 48 h
# SK-MEL-2 = assay: Antiproliferative activity against human SK-MEL-2 cells assessed as growth inhibition after 48 hrs by sulforhodamine B assay; type: functional; conditions: SK-MEL-2, 48 h
# MDA-MB-435 = assay: Antiproliferative activity against human MDA-MB-435 cells assessed as growth inhibition after 48 hrs by sulforhodamine B assay; type: functional; conditions: MDA-MB-435, 48 h
# Malme-3M = assay: Antiproliferative activity against human MALME-3M cells assessed as growth inhibition after 48 hrs by sulforhodamine B assay; type: functional
# LOX IMVI = assay: Antiproliferative activity against human LOXIMVI cells assessed as growth inhibition after 48 hrs by sulforhodamine B assay; type: functional
# U-251 = assay: Antiproliferative activity against human U251 cells assessed as growth inhibition after 48 hrs by sulforhodamine B assay; type: functional; conditions: U-251, 48 h
# SNB-75 = assay: Antiproliferative activity against human SNB75 cells assessed as growth inhibition after 48 hrs by sulforhodamine B assay; type: functional; conditions: SNB-75, 48 h
# SNB-19 = assay: Antiproliferative activity against human SNB19 cells assessed as growth inhibition after 48 hrs by sulforhodamine B assay; type: functional; conditions: SNB-19, 48 h
# SF-295 = assay: Antiproliferative activity against human SF295 cells assessed as growth inhibition after 48 hrs by sulforhodamine B assay; type: functional; conditions: SF-295, 48 h
# SF-268 = assay: Antiproliferative activity against human SF268 cells assessed as growth inhibition after 48 hrs by sulforhodamine B assay; type: functional; conditions: SF-268, 48 h
# KM12 = assay: Antiproliferative activity against human KM12 cells assessed as growth inhibition after 48 hrs by sulforhodamine B assay; type: functional; conditions: KM12, 48 h
# HT-29 = assay: Antiproliferative activity against human HT-29 cells assessed as growth inhibition after 48 hrs by sulforhodamine B assay; type: functional; conditions: HT-29, 48 h
# HCT-15 = assay: Antiproliferative activity against human HCT15 cells assessed as growth inhibition after 48 hrs by sulforhodamine B assay; type: functional; conditions: HCT-15, 48 h
# HCC 2998 = assay: Antiproliferative activity against human HCC2998 cells assessed as growth inhibition after 48 hrs by sulforhodamine B assay; type: functional; conditions: HCC 2998, 48 h
# NCI-H460 = assay: Antiproliferative activity against human NCI-H460 cells assessed as growth inhibition after 48 hrs by sulforhodamine B assay; type: functional; conditions: NCI-H460, 48 h
# NCI-H322M = assay: Antiproliferative activity against human NCI-H322M cells assessed as growth inhibition after 48 hrs by sulforhodamine B assay; type: functional
# EKVX = assay: Antiproliferative activity against human EKVX cells assessed as growth inhibition after 48 hrs by sulforhodamine B assay; type: functional
# A549 = assay: Antiproliferative activity against human A549/ATCC cells assessed as growth inhibition after 48 hrs by sulforhodamine B assay; type: functional; conditions: A549, 48 h
# MOLT-4 = assay: Antiproliferative activity against human MOLT4 cells assessed as growth inhibition after 48 hrs by sulforhodamine B assay; type: functional; conditions: MOLT-4, 48 h
# HL-60(TB) = assay: Antiproliferative activity against human HL-60(TB) cells assessed as growth inhibition after 48 hrs by sulforhodamine B assay; type: functional; conditions: HL-60, 48 h
# CCRF-CEM = assay: Antiproliferative activity against human CCRF-CEM cells assessed as growth inhibition after 48 hrs by sulforhodamine B assay; type: functional
# Hs-578T = assay: Antiproliferative activity against human Hs578T cells assessed as growth inhibition after 48 hrs by sulforhodamine B assay; type: functional
# Erythrocyte [4] = assay: Haemolytic activity in human erythrocytes assessed as induction of hemolysis at 1.25 mM after 30 mins relative to H202; type: cell-based; conditions: erythrocyte, 0.5 h, 1250 µM
# Erythrocyte [5] = assay: Haemolytic activity in human erythrocytes assessed as induction of hemolysis at 0.625 mM after 30 mins relative to H202; type: cell-based; conditions: erythrocyte, 0.5 h, 625 µM
# [6] = Antioxidant activity assessed as DPPH radical scavenging activity incubated in dark for 30 mins by spectrophotometric method relative to ascorbic acid; type: functional
# [7] = Antioxidant activity assessed as hydroxyl radical scavenging activity after 1 hr by salicylic acid-based Fenton reaction assay; type: functional
# [8] = Pro-oxidant activity assessed as increase in bleomycin-Fe2+ induced calf thymus DNA damage at 2 mM after 1 hr by thiobarbituric acid based absorbance analysis
# HCT-116 [9] = assay: Induction of apoptosis in human HCT116 cells assessed as increase in caspase 9 mRNA expression at 100 nM after 6 hrs hrs by SYBR green dye-based qRT-PCR analysis relative to control; type: functional
# HCT-116 [10] = assay: […] in CDK1 mRNA expression in human HCT116 cells at 100 nM after 6 hrs hrs by SYBR green dye-based qRT-PCR analysis relative to control; type: functional
smiles,measurement,setting,value
N=C(N)c1ccc(-c2ccc(-c3ccc(Cl)cc3)s2)s1,GI50,UO-31,1.75 µM
same,GI50,[1],1.73 µM
same,LC50,[1],29.5 µM
same,TGI,[1],4.07 µM
same,IC50,WI-38,69.2 µM
same,Selectivity Index,[2],40
same,GI50,PC-3,1.86 µM
same,GI50,OVCAR-3,1.74 µM
same,inhibition of growth at 10 µM,[3],-57.2%
same,GI50,DU-145,1.62 µM
same,GI50,ACHN,1.75 µM
same,GI50,786-0,1.79 µM
same,GI50,SK-OV-3,1.7 µM
same,GI50,NCI/ADR-RES,1.85 µM
same,GI50,IGROV-1,1.83 µM
same,GI50,SK-MEL-5,3.16 µM
same,GI50,SK-MEL-2,2.38 µM
same,GI50,MDA-MB-435,1.64 µM
same,GI50,Malme-3M,1.81 µM
same,GI50,LOX IMVI,1.31 µM
same,GI50,U-251,1.83 µM
same,GI50,SNB-75,1.49 µM
same,GI50,SNB-19,1.92 µM
same,GI50,SF-295,1.63 µM
same,GI50,SF-268,1.77 µM
same,GI50,KM12,1.69 µM
same,GI50,HT-29,1.43 µM
same,GI50,HCT-15,1.2 µM
same,GI50,HCC 2998,1.57 µM
same,GI50,NCI-H460,1.51 µM
same,GI50,NCI-H322M,1.63 µM
same,GI50,EKVX,1.64 µM
same,GI50,A549,2.11 µM
same,GI50,MOLT-4,1.78 µM
same,GI50,HL-60(TB),1.49 µM
same,GI50,CCRF-CEM,1.84 µM
same,GI50,Hs-578T,2.14 µM
same,Activity,Erythrocyte [4],Non-Toxic
same,Activity,Erythrocyte [5],Non-Toxic
same,fold change (FC),[6],0.8
same,Activity,[7],Active
same,Activity,[8],Active
same,fold change (FC),HCT-116 [9],2.91
same,fold change (FC),HCT-116 [10],1.08
N=C(N)c1ccc(-c2ccc(-c3ccccc3)o2)o1,GI50,UO-31,1.54 µM
same,GI50,[1],2.4 µM
same,LC50,[1],22.4 µM
same,TGI,[1],6.91 µM
same,IC50,WI-38,68.7 µM
same,Selectivity Index,[2],28.6
same,GI50,PC-3,2.64 µM
same,GI50,OVCAR-3,3.13 µM
same,inhibition of growth at 10 µM,[3],68.2%
same,GI50,DU-145,3.3 µM
same,GI50,ACHN,2.56 µM
same,GI50,786-0,1.74 µM
same,GI50,SK-OV-3,4.3 µM
same,GI50,NCI/ADR-RES,2.82 µM
same,GI50,IGROV-1,2.89 µM
same,GI50,SK-MEL-5,1.75 µM
same,GI50,SK-MEL-2,2.25 µM
same,GI50,MDA-MB-435,0.99 µM
same,GI50,Malme-3M,1.75 µM
same,GI50,LOX IMVI,1.7 µM
same,GI50,U-251,2.22 µM
same,GI50,SNB-75,1.6 µM
same,GI50,SNB-19,3.01 µM
same,GI50,SF-295,1.81 µM
same,GI50,SF-268,2.98 µM
same,GI50,KM12,2.61 µM
same,GI50,HT-29,2.11 µM
same,GI50,HCT-15,1.16 µM
same,GI50,HCC 2998,1.61 µM
same,GI50,NCI-H460,2.45 µM
same,GI50,NCI-H322M,2.12 µM
same,GI50,EKVX,2.34 µM
same,GI50,A549,3.55 µM
same,GI50,MOLT-4,3.31 µM
same,GI50,HL-60(TB),2.18 µM
same,GI50,CCRF-CEM,3.58 µM
same,GI50,Hs-578T,3.81 µM
same,Activity,Erythrocyte [4],Non-Toxic
same,Activity,Erythrocyte [5],Non-Toxic
same,fold change (FC),[6],0.3
same,Activity,[7],Active
same,Activity,[8],Active
same,fold change (FC),HCT-116 [9],2.28
same,fold change (FC),HCT-116 [10],0.97

# Reference: ChEMBL document CHEMBL4346657, “Anticancer activity, dual prooxidant/antioxidant effect and apoptosis induction profile of new bichalcophene-5-carboxamidines” (Eur J Med Chem, 2019)
